Experimental data from patent US11414416B1, “Compounds and uses thereof” (Foghorn Therapeutics Inc., priority 2019, dated 2022).

Target: Nanoluciferase-BRD9 fusion protein (Homo sapiens (Human), UniProt Q9H8M2)
Assay: SYO1 BRD9 NanoLuc degradation assay
Assay type: cell-based
Details: Table 5B; SYO-1 cells expressing 3×FLAG-NLuc-BRD9, 6 hours; read-out: SYO1 BRD9-NanoLuc degradation IC50
In short: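 Degradation was read as loss of nanoluciferase signal (Nano-Glo) after 6 h compound exposure in a stable SYO-1 line carrying 3×FLAG-NLuc-BRD9 (8000 cells/well). Normalised between DMSO (high) and a 1 μM known BRD9 degrader (low).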

Chain of Nanoluciferase-BRD9 fusion protein (Q9H8M2 whole entry, the tested form may be a part): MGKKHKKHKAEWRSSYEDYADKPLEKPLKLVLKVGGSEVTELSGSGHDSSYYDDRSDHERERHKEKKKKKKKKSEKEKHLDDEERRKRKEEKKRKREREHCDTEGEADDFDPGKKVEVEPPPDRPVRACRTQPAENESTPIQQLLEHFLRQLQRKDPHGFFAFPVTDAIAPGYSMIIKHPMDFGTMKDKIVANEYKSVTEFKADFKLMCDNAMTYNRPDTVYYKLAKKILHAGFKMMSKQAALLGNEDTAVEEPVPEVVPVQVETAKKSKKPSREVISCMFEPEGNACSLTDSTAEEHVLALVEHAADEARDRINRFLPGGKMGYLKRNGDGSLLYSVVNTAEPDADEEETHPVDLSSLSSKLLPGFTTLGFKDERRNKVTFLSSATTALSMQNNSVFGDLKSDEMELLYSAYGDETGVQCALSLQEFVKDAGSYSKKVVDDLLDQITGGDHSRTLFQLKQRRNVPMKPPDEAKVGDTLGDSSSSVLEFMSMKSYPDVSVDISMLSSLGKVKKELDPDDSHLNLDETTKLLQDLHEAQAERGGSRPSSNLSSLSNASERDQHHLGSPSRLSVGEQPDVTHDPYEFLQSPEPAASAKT

| Structure (SMILES) | DC50 |
| --- | --- |
| COc1cc(-c2cn(C)c(=O)c3cnccc23)cc(OC)c1CN(C)CCOCCn1cc(CCOc2ccc3c(c2)C(=O)N(C2CCC(=O)NC2=O)C3=O)nn1 (centres unmarked) [Compound D292] | 0.1 to 1 µM |
| COc1cc(-c2cn(C)c(=O)c3cnccc23)cc(OC)c1CN(C)CCOCCn1cc(COCCOc2ccc3c(c2)C(=O)N(C2CCC(=O)NC2=O)C3=O)nn1 (centres unmarked) [Compound D293] | 0.01 to 0.1 µM |
| COc1cc(-c2cn(C)c(=O)c3cnccc23)cc(OC)c1CN(C)CCOCCn1cc(CN2CC(Oc3ccc4c(c3)C(=O)N(C3CCC(=O)NC3=O)C4=O)C2)nn1 (centres unmarked) [Compound D294] | 0.1 to 1 µM |
| COc1cc(-c2cn(C)c(=O)c3cnccc23)cc(OC)c1CN(C)CCOCCn1cc(COC2CN(c3ccc4c(c3)C(=O)N(C3CCC(=O)NC3=O)C4=O)C2)nn1 (centres unmarked) [Compound D295] | 0.1 to 1 µM |
| COc1cc(-c2cn(C)c(=O)c3cnccc23)cc(OC)c1CN1CC(n2cc(COc3ccc4c(c3)C(=O)N(C3CCC(=O)NC3=O)C4=O)nn2)C1 (centres unmarked) [Compound D297] | < 0.01 µM |
| COc1cc(-c2cn(C)c(=O)c3cnccc23)cc(OC)c1CN1CC(n2cc(CCOc3ccc4c(c3)C(=O)N(C3CCC(=O)NC3=O)C4=O)nn2)C1 (centres unmarked) [Compound D298] | < 0.01 µM |
| COc1cc(-c2cn(C)c(=O)c3cnccc23)cc(OC)c1CN1CC(n2cc(COCCOc3ccc4c(c3)C(=O)N(C3CCC(=O)NC3=O)C4=O)nn2)C1 (centres unmarked) [Compound D299] | < 0.01 µM |
| COc1cc(-c2cn(C)c(=O)c3cnccc23)cc(OC)c1CN1CC(n2cc(CN3CC(Oc4ccc5c(c4)C(=O)N(C4CCC(=O)NC4=O)C5=O)C3)nn2)C1 (centres unmarked) [Compound D300] | < 0.01 µM |
| COc1cc(-c2cn(C)c(=O)c3cnccc23)cc(OC)c1CN1CC(n2cc(COC3CN(c4ccc5c(c4)C(=O)N(C4CCC(=O)NC4=O)C5=O)C3)nn2)C1 (centres unmarked) [Compound D301] | < 0.01 µM |
| COc1cc(-c2cn(C)c(=O)c3cnccc23)cc(OC)c1CN1CC(n2cc(COC3CCN(c4ccc5c(c4)C(=O)N(C4CCC(=O)NC4=O)C5=O)CC3)nn2)C1 (centres unmarked) [Compound D302] | < 0.01 µM |
| COc1cc(-c2cn(C)c(=O)c3cnccc23)cc(OC)c1Cn1cc(COCCOc2ccc3c(c2)C(=O)N(C2CCC(=O)NC2=O)C3=O)nn1 (centres unmarked) [Compound D303] | 0.01 to 0.1 µM |
| COc1cc(-c2cn(C)c(=O)c3cnccc23)cc(OC)c1CN1CCC(CN2CCC3(CC2)CC(Oc2ccc4c(c2)C(=O)N(C2CCC(=O)NC2=O)C4=O)C3)CC1 (centres unmarked) [Compound D304] | < 0.01 µM |
| COc1cc(-c2cn(C)c(=O)c3cnccc23)cc(OC)c1CN1CC(CCN2CCC3(CC2)CC(Oc2ccc4c(c2)C(=O)N(C2CCC(=O)NC2=O)C4=O)C3)C1 (centres unmarked) [Compound D305] | 0.1 to 1 µM |
| COc1cc(-c2cn(C)c(=O)c3cnccc23)cc(OC)c1CN1CC2(CCN(CC#Cc3ccc4c(c3)C(=O)N(C3CCC(=O)NC3=O)C4=O)C2)C1 (centres unmarked) [Compound D306] | < 0.01 µM |
| COc1cc(-c2cn(C)c(=O)c3cnccc23)cc(OC)c1CN1CC2(CCN(CC#Cc3ccc4c(c3)C(=O)N(C3CCC(=O)NC3=O)C4=O)CC2)C1 (centres unmarked) [Compound D307] | < 0.01 µM |
| COc1cc(-c2cn(C)c(=O)c3cnccc23)cc(OC)c1CN1CCC2(CC1)CCN(CC#Cc1ccc3c(c1)C(=O)N(C1CCC(=O)NC1=O)C3=O)C2 (centres unmarked) [Compound D308] | < 0.01 µM |
| COc1cc(-c2cn(C)c(=O)c3cnccc23)cc(OC)c1CN1CC2(CN(CC#Cc3ccc4c(c3)C(=O)N(C3CCC(=O)NC3=O)C4=O)C2)C1 (centres unmarked) [Compound D309] | 0.01 to 0.1 µM |
| COc1cc(-c2cn(C)c(=O)c3cnccc23)cc(OC)c1CN1CCC2C(C1)CN2CCCC#Cc1ccc2c(c1)C(=O)N(C1CCC(=O)NC1=O)C2=O (centres unmarked) [Compound D310] | < 0.01 µM |
| COc1cc(-c2cn(C)c(=O)c3cnccc23)cc(OC)c1CN1CC2(CCN(C(=O)CC#Cc3ccc4c(c3)C(=O)N(C3CCC(=O)NC3=O)C4=O)C2)C1 (centres unmarked) [Compound D311] | 0.01 to 0.1 µM |
| COc1cc(-c2cn(C)c(=O)c3cnccc23)cc(OC)c1CN1CC2(CCN(C(=O)CC#Cc3ccc4c(c3)C(=O)N(C3CCC(=O)NC3=O)C4=O)CC2)C1 (centres unmarked) [Compound D312] | < 0.01 µM |
